Patent US12187773B2, “Modified GIP peptide analogues” (Antag Therapeutics ApS, priority 2018, dated 2025)
*1 amine or outer side, *2 acyl side, *3 side chain or, on linkers, in order; H or OH if unused. Where a SMILES comes first, the peptide text is derived from it. Side-chain parts run from the residue outwards. [ ]: non-standard residue; d: D form. The star is where a group is joined. C18 diacid = O=C(O)CCCCCCCCCCCCCCCCC(=O)*; C16 diacid = O=C(O)CCCCCCCCCCCCCCC(=O)*; γGlu = O=C(O)[C@H](CCC(=O)[*:2])N[*:1]; pGlu = O=C1CC[C@@H](C(=O)O)N1; AEEA = NCCOCCOCC(=O)O

What was measured:
Type in all cases: cell-based
human GIP receptor [1] = molecular target: T1, human GIP receptor (Homo sapiens, UniProt P48546); assay: cAMP agonism (CisBio cAMP Dynamic 2 HTRF assay); settings: HEK293, read-out: cAMP agonism, % Efficacy, Table 1C, HEK-293 cells
T1 sequence (P48546 22-466): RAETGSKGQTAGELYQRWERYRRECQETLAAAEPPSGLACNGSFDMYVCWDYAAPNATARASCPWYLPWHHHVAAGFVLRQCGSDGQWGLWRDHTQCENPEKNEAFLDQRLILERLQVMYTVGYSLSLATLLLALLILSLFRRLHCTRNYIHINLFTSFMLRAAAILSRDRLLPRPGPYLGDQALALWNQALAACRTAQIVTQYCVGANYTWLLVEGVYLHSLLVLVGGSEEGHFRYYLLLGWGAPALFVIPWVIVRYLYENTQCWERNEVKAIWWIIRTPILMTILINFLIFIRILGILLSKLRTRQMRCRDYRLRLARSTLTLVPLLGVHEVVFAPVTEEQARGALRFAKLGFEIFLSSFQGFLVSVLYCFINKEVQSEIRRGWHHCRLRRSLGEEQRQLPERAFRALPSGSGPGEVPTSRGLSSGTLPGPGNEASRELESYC
Experimental: To test for agonistic properties at the GIP receptor, compounds were diluted and added to cells as described above and incubated for 30 min at 37° C. The resulting increase in intracellular cAMP was determined using the CisBio cAMP Dynamic 2 HTRF Assay Kit as described above.

human GIP receptor [2] = molecular target: T1, human GIP receptor; assay: cAMP antagonism (CisBio cAMP Dynamic 2 HTRF assay); set-up: pCMV-Script vector; settings: Table 1C, CisBio, HEK-293 cells; for IC50: cAMP antagonism, nM (IC50), agonist GIP1-42 at EC50
Outline: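 Four-parameter fits of cAMP dose-response gave pIC50. cAMP fall was quantified by HTRF competition, ratio 665/620 nm after 60 min at room temperature, against a cAMP standard curve.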

human GIP receptor [3] = molecular target: T1, human GIP receptor; assay: cAMP accumulation, antagonism (DiscoveRx HitHunter cAMP XS assay); set-up: host or cells: COS-7 (transient, calcium phosphate; pCMV-Script vector); settings: Table 1B, DiscoveRx; for cAMP antagonism, % inhib: COS-7 cells, % inhibition of Emax; for IC50: cAMP antagonism, nM (IC50), transiently transfected COS-7 cells
Experimental: Transient transfected COS-7 cells expressing the human GIP receptor were seeded in white 96-well plates with a density of 3.5*10^4/well. The day after, the cells were washed twice with Hepes buffered saline (HBS) buffer and incubated with HBS and 1 mM 3-isobutyl-1-methylxanthine (IBMX) for 30 min at 37° C. To test for agonistic properties, ligands were added and incubated for 30 min at 37° C. In order to test for antagonistic properties, the cells were preincubated with the antagonists for 10 min prior to the addition of the agonist and subsequent incubated for 20 additional min. The HitHunter™ cAMP XS assay (DiscoveRx) was carried out according to the manufacturer's instructions.
In order to develop a GIP receptor antagonist with improved antagonistic properties, individual amino acid substitutions were conducted on GIP(3-30)NH2 and in particular at positions: 16, 18, 30 or 3, 16, 18, 30. The obtained peptides were lipidated at position 18 directly or via a linker. Both the agonistic and antagonistic profiles of the compounds were tested in cAMP accumulation experiments done in transiently transfected COS-7 cells expressing the human GIP receptor. To investigate if these mutated analogues still retained their antagonistic properties, their ability to inhibit a GIP-mediated cAMP response corresponding to 50-80% of maximum activation was examined.

human GIP receptor [4] = molecular target: T1, human GIP receptor; assay: cAMP accumulation, agonism (DiscoveRx HitHunter cAMP XS assay); set-up: host or cells: COS-7 (transient, calcium phosphate; pCMV-Script vector); settings: Table 1B; DiscoveRx; COS-7 cells
Outline: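 cAMP accumulation measured by HitHunter cAMP XS in COS-7 cells transiently expressing human GIP receptor, after 30 min in HBS with 1 mM IBMX at 37 °C. Antagonists preincubated 10 min before GIP giving 50-80% of maximum, then 20 min more; agonist mode used 30 min ligand exposure.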

SMILES	Emax (human GIP receptor [1])	cAMP antagonism, % inhib (human GIP receptor [2])	IC50 (human GIP receptor [2])	cAMP antagonism, % inhib (human GIP receptor [3])	cAMP agonism, Emax (human GIP receptor [4])	IC50 (human GIP receptor [3])
CC[C@H](C)[C@H](NC(=O)[C@H](CO)NC(=O)[C@H](Cc1ccc(O)cc1)NC(=O)[C@H](CC(=O)O)NC(=O)[C@H](CO)NC(=O)[C@@H](NC(=O)[C@H](Cc1ccccc1)NC(=O)[C@@H](NC(=O)CNC(=O)[C@@H](N)CCC(=O)O)[C@@H](C)O)[C@@H](C)CC)C(=O)N[C@@H](C)C(=O)N[C@@H](CCSC)C(=O)N[C@@H](CC(=O)O)C(=O)N[C@@H](CCCNC(=N)N)C(=O)N[C@H](C(=O)N[C@@H](CCCCNC(=O)COCCOCCNC(=O)COCCOCCNC(=O)COCCOCCNC(=O)CC[C@H](NC(=O)CCCCCCCCCCCCCCC(=O)O)C(=O)O)C(=O)N[C@@H](CCC(N)=O)C(=O)N[C@@H](CCC(N)=O)C(=O)N[C@@H](CC(=O)O)C(=O)N[C@@H](Cc1ccccc1)C(=O)N[C@H](C(=O)N[C@@H](CC(N)=O)C(=O)N[C@@H](Cc1c[nH]c2ccccc12)C(=O)N[C@@H](CC(C)C)C(=O)N[C@@H](CC(C)C)C(=O)N[C@@H](C)C(=O)N[C@@H](CCC(N)=O)C(=O)N[C@@H](CCCNC(=N)N)C(N)=O)C(C)C)[C@@H](C)CC [AT375] (H-EGTFISDYSIAMDRIK([AEEA-AEEA-AEEA-γGlu-C16 diacid])QQDFVNWLLAQR-NH2; N-terminus assumed)	6%	83%	23.3 nM	100%	No Agonism	
CC[C@H](C)[C@H](NC(=O)[C@H](CO)NC(=O)[C@H](Cc1ccc(O)cc1)NC(=O)[C@H](CC(=O)O)NC(=O)[C@H](CO)NC(=O)[C@@H](NC(=O)[C@H](Cc1ccccc1)NC(=O)[C@@H](NC(=O)CNC(=O)[C@@H](N)CCC(=O)O)[C@@H](C)O)[C@@H](C)CC)C(=O)N[C@@H](C)C(=O)N[C@@H](CCSC)C(=O)N[C@@H](CC(=O)O)C(=O)N[C@@H](CCCNC(=N)N)C(=O)N[C@H](C(=O)N[C@@H](CCCCNC(=O)COCCOCCNC(=O)CC[C@H](NC(=O)CCCCCCCCCCCCCCCCC(=O)O)C(=O)O)C(=O)N[C@@H](CCC(N)=O)C(=O)N[C@@H](CCC(N)=O)C(=O)N[C@@H](CC(=O)O)C(=O)N[C@@H](Cc1ccccc1)C(=O)N[C@H](C(=O)N[C@@H](CC(N)=O)C(=O)N[C@@H](Cc1c[nH]c2ccccc12)C(=O)N[C@@H](CC(C)C)C(=O)N[C@@H](CC(C)C)C(=O)N[C@@H](C)C(=O)N[C@@H](CCC(N)=O)C(=O)N[C@@H](CCCNC(=N)N)C(N)=O)C(C)C)[C@@H](C)CC [AT376] (HELM PEPTIDE1{E.G.T.F.I.S.D.Y.S.I.A.M.D.R.I.K.Q.Q.D.F.V.N.W.L.L.A.Q.R.[am]}|PEPTIDE2{[O=C(O)CCCCCCCCCCCCCCCCC(=O)[*:2]].[gGlu].[O=C(COCCOCCN[*:1])[*:2]]}$PEPTIDE1,PEPTIDE2,16:R3-3:R2$$$V2.0; N-terminus assumed)	0%	87%	6.81 nM	90%	No Agonism	19 nM
CC[C@H](C)[C@H](NC(=O)[C@H](CO)NC(=O)[C@H](Cc1ccc(O)cc1)NC(=O)[C@H](CC(=O)O)NC(=O)[C@H](CO)NC(=O)[C@@H](NC(=O)[C@H](Cc1ccccc1)NC(=O)[C@@H](NC(=O)CNC(=O)[C@@H](N)CCC(=O)O)[C@@H](C)O)[C@@H](C)CC)C(=O)N[C@@H](C)C(=O)N[C@@H](CCSC)C(=O)N[C@@H](CC(=O)O)C(=O)N[C@@H](CCCNC(=N)N)C(=O)N[C@H](C(=O)N[C@@H](CCCCNC(=O)COCCOCCNC(=O)COCCOCCNC(=O)CC[C@H](NC(=O)CCCCCCCCCCCCCCCCC(=O)O)C(=O)O)C(=O)N[C@@H](CCC(N)=O)C(=O)N[C@@H](CCC(N)=O)C(=O)N[C@@H](CC(=O)O)C(=O)N[C@@H](Cc1ccccc1)C(=O)N[C@H](C(=O)N[C@@H](CC(N)=O)C(=O)N[C@@H](Cc1c[nH]c2ccccc12)C(=O)N[C@@H](CC(C)C)C(=O)N[C@@H](CC(C)C)C(=O)N[C@@H](C)C(=O)N[C@@H](CCC(N)=O)C(=O)N[C@@H](CCCNC(=N)N)C(N)=O)C(C)C)[C@@H](C)CC [AT377] (H-EGTFISDYSIAMDRIK([AEEA-AEEA-γGlu-C18 diacid])QQDFVNWLLAQR-NH2; N-terminus assumed)	0%	90%		100%	No Agonism	19 nM
CC[C@H](C)[C@H](NC(=O)[C@H](CO)NC(=O)[C@H](Cc1ccc(O)cc1)NC(=O)[C@H](CC(=O)O)NC(=O)[C@H](CO)NC(=O)[C@@H](NC(=O)[C@H](Cc1ccccc1)NC(=O)[C@@H](NC(=O)CNC(=O)[C@@H](N)CCC(=O)O)[C@@H](C)O)[C@@H](C)CC)C(=O)N[C@@H](C)C(=O)N[C@@H](CCSC)C(=O)N[C@@H](CC(=O)O)C(=O)N[C@@H](CCCNC(=N)N)C(=O)N[C@H](C(=O)N[C@@H](CCCCNC(=O)COCCOCCNC(=O)COCCOCCNC(=O)COCCOCCNC(=O)CC[C@H](NC(=O)CCCCCCCCCCCCCCCCC(=O)O)C(=O)O)C(=O)N[C@@H](CCC(N)=O)C(=O)N[C@@H](CCC(N)=O)C(=O)N[C@@H](CC(=O)O)C(=O)N[C@@H](Cc1ccccc1)C(=O)N[C@H](C(=O)N[C@@H](CC(N)=O)C(=O)N[C@@H](Cc1c[nH]c2ccccc12)C(=O)N[C@@H](CC(C)C)C(=O)N[C@@H](CC(C)C)C(=O)N[C@@H](C)C(=O)N[C@@H](CCC(N)=O)C(=O)N[C@@H](CCCNC(=N)N)C(N)=O)C(C)C)[C@@H](C)CC [AT378] (H-EGTFISDYSIAMDRIK([AEEA-AEEA-AEEA-γGlu-C18 diacid])QQDFVNWLLAQR-NH2; N-terminus assumed)	0%	90%		92%	No Agonism	16 nM
CC[C@H](C)[C@H](NC(=O)[C@H](CO)NC(=O)[C@H](Cc1ccc(O)cc1)NC(=O)[C@H](CC(=O)O)NC(=O)[C@H](CO)NC(=O)[C@@H](NC(=O)[C@H](Cc1ccccc1)NC(=O)[C@@H](NC(=O)CNC(=O)[C@@H]1CCC(=O)N1)[C@@H](C)O)[C@@H](C)CC)C(=O)N[C@@H](C)C(=O)N[C@@H](CCSC)C(=O)N[C@@H](CC(=O)O)C(=O)N[C@@H](CCCNC(=N)N)C(=O)N[C@H](C(=O)N[C@@H](CCCCNC(=O)CCCCCCCCCCCCCCC(=O)O)C(=O)N[C@@H](CCC(N)=O)C(=O)N[C@@H](CCC(N)=O)C(=O)N[C@@H](CC(=O)O)C(=O)N[C@@H](Cc1ccccc1)C(=O)N[C@H](C(=O)N[C@@H](CC(N)=O)C(=O)N[C@@H](Cc1c[nH]c2ccccc12)C(=O)N[C@@H](CC(C)C)C(=O)N[C@@H](CC(C)C)C(=O)N[C@@H](C)C(=O)N[C@@H](CCC(N)=O)C(=O)N[C@@H](CCCNC(=N)N)C(N)=O)C(C)C)[C@@H](C)CC [AT390] ([pGlu]GTFISDYSIAMDRIK(C16 diacid)QQDFVNWLLAQR-NH2)	4%	81%	15.9 nM	100%	No Agonism	1 nM
